Laboratory results taken from patent US10801879B2, “Magnesium zinc oxide nanostructure modified biosensor and monitoring of response of cell population to an agent using the same” (Rutgers, The State University of New Jersey, priority 2015, dated 2020).
Converted amounts (≈) assume the structure as drawn. Blank lines part the entries; values can stand above or below the compound they belong to.

Key:
S. epidermidis = test: Standard broth dilution assay (MIC), S. epidermidis; assay type: cell-based; conditions: Staphylococcus epidermidis
P. aeruginosa = conditions: FIG. 15(b)
Description: The sensor was placed inside an incubator at 37° C. while automatically measuring the acoustic spectrum every 15 minutes for 3 hours.

S. cerevisiae (yeast) [1] = test: Spectrophotometry (OD600) monitoring of antifungal drug effects on yeast; assay type: cell-based; conditions: patent calls the identification incorrect
Excerpt: (§1) The result using various embodiments in this patent document accurately detects both drug effects in a rapid manner.
(§2) This is due to the fact that the spectroscopic method relies on light absorption by the suspended cells, and dead yeast cells remain in suspension, thus contributing to the absorption.

S. cerevisiae (yeast) [2] = test: MZOnano-QCM monitoring of antifungal drug effects on yeast; assay type: cell-based; conditions: drug introduced at 330 min after initial growth seeding
Excerpt: as §1, §2

[3] = test system: antibiotic-sensitive E. coli; test: MZOnano-QCM detection of antibiotic effects on sensitive E. coli; assay type: cell-based; conditions: ampicillin-sensitive cells, 256 μg/mL
Description: (§3) The first example illustrates the application of a magnesium zinc oxide (MZO) nanostructure-modified quartz crystal microbalance (MZOnano-QCM) biosensor disclosed in this document with reference to FIGS. 1A and 1B to dynamically monitor antibiotic effects on sensitive and resistant E. coli cells. MZO-nanostructures were grown on a standard QCM top-electrode using metal-organic chemical-vapor deposition. ZnO and MZO nanostructured-films are chosen for their multi-functionality and biocompatibility. Their surface-wettability and morphology can be controlled, offering high-sensitivity to various biological/biochemical species. MZO can withstand a larger pH range than ZnO does. Combining advantages of MZO nanostructures with the dynamic impedance spectrum capability of QCM makes MZOnano-QCM a highly-sensitive dynamic biosensor well-suited for AMR detection. The growth of E. coli on ZnO and MZO nanostructures was determined by 90-minute incubation.
(§4) FIGS. 4A-4D show the detection of antibiotic effects on E. coli using regular QCM, ZnOnano-QCM and MZOnano-QCM. The regular QCM failed detection due to low sensitivity while both ZnOnano- and MZOnano-QCM enable accurate detection of bacterial count during active growth though frequency shifts (Δf). The MZOnano-QCM offered four-fold higher sensitivity than ZnOnano-QCM. […]

resistant E. coli = test: MZOnano-QCM detection of antimicrobial resistance of resistant E. coli; assay type: cell-based; conditions: ampicillin-resistant cells, 256 μg/mL
Description: as §3, §4

[4] = test system: VP16-resistant derivative cell line (CEM-V1); test: MZOnano-QCM 48-hour monitoring of drug resistant ALL (CEM-V1) cells; assay type: cell-based
Excerpt: (§5) The third example uses the drug VP16 (also known as etoposide, an anticancer agent), VP16-sensitive ALL cell line (CEM) and its VP16-resistant derivative cell line (CEM-V1) as a model for monitoring the effect of anticancer agents on the growth of cancer cells using the MZOnano-QCM sensor device, where the Mg composition x in MZO is 0.03.
The same experiment can be repeated on drug resistant CEM leukemia cells (CEM-V1) using both the MZOnano-QCM sensor and the viability analyzer, and the monitoring can be conducted for 48 hours. […] The drug was added into the cell culture at 4 hours after the initial seeding of 4×10^5 cells. […] The various configurations used in the example in FIG. 11 are the same as those described with respect to FIG. 8, and the various configurations used in the example in FIG. 12 are the same as those described with respect to FIG. 9.

[5] = test system: VP16-sensitive ALL cell line (CEM); test: MZOnano-QCM 48-hour monitoring of drug sensitive ALL (CEM) cells; assay type: cell-based
Description: as §5
For all of the experiments in this example, an initial seeding density of 4×10^5 cells in 2 mL of medium is used, the leukemia cell growth using the MZOnano-QCM is monitored dynamically for 48 hours. The drug (VP16) was introduced into the cell culture after 4 hours after the initial seeding. With reference to FIG. 7, the time-dependent frequency shift of the sensor for the entire 48-hour monitoring period of the drug sensitive CEM cells is shown. In the no-drug case, the frequency shift increases exponentially from 0-40 hours (indicating exponential cell accumulation on the sensing area) and then the frequency shift rate decreases showing saturation of the cell growth. In the case where the drug is introduced into the cell culture in the device, it is observed that the cells continue to grow after the drug has been introduced (4 hours after initial seeding), however, it is seen that the drug has taken effect 16 hours after the drug has been introduced.

MIC (S. epidermidis): 0.05 µg/mL (≈ 0.151 µM)
SMILES: O=C(O)c1cn(C2CC2)c2cc(N3CCNCC3)c(F)cc2c1=O [ciprofloxacin]
motional resistance in presence or absence of drug (P. aeruginosa): dramatically different

SMILES: C[C@@H]1[C@H](O)[C@@H](C)/C=C/C=C/C=C/C=C/C=C/C=C/C=C/[C@H](O[C@@H]2O[C@H](C)[C@@H](O)[C@H](N)[C@@H]2O)C[C@@H]2O[C@](O)(C[C@@H](O)C[C@@H](O)[C@H](O)CC[C@@H](O)C[C@@H](O)CC(=O)O[C@H]1C)C[C@H](O)[C@H]2C(=O)O [amphotericin]
drug effect on yeast as identified by OD600 method (S. cerevisiae (yeast) [1]): fungi-static | drug effect on yeast detected by sensor (S. cerevisiae (yeast) [2]): cell-killing effects

SMILES: CC1(C)S[C@@H]2[C@H](NC(=O)[C@H](N)c3ccccc3)C(=O)N2[C@H]1C(=O)O [ampicillin]
time within which Δf declined upon treatment [3]: ≤ 10 min | time within which Δf stopped increasing upon treatment [3]: ≤ 5 min | Δf response upon treatment (resistant E. coli): continued increasing

SMILES: COc1cc([C@@H]2c3cc4c(cc3[C@@H](O[C@@H]3O[C@@H]5CO[C@@H](C)O[C@H]5[C@H](O)[C@H]3O)[C@H]3COC(=O)[C@H]23)OCO4)cc(OC)c1O [VP16, etoposide]
cell response (frequency shift trend) in the presence of the drug ([4]; 48 hours monitoring): continuous cell growth | time after addition of drug at which frequency shift started to decrease compared to no-drug control ([4]; drug added 4 hours after initial seeding of 4×10^5 cells): ~15 h | cell response (frequency shift) after drug took effect ([5]; 20 hours to 48 hours): cells start to die (or stop to proliferate) | time after drug introduction at which drug has taken effect ([5]; drug introduced 4 hours after initial seeding of 4×10^5 cells): 16 h

SMILES: Clc1ccc(COC(Cn2ccnc2)c2ccc(Cl)cc2Cl)c(Cl)c1 (stereo not drawn) [miconazole]
drug effect on yeast detected by sensor (S. cerevisiae (yeast) [2]): growth inhibition effects
